Experimental data: ChEMBL document CHEMBL2034850, “Radiosynthesis of a ¹⁸F-labeled 2,3-diarylsubstituted indole via McMurry coupling for functional characterization of cyclooxygenase-2 (COX-2) in vitro and in vivo” (Bioorg Med Chem, 2012)

Columns and labels:
HT-29 [1] = assay: Cellular uptake in human HT-29 spheroids of diameter 300+/-10 um assessed per mg of protein at 0.4 MBq after 4 hrs by gamma counting; assay type: ADME, cell-based; details: ht-29, 4 h
HT-29 [2] = assay: Cellular uptake in human HT-29 spheroids of diameter 600+/-10 um assessed per mg of protein at 0.4 MBq after 4 hrs by gamma counting; assay type: ADME, cell-based; details: ht-29, 4 h
HT-29 [3] = details: human, ht-29, 4 h
Description: Cellular uptake in human HT-29 monolayers assessed per mg of protein at 0.4 MBq after 4 hrs by gamma counting

Structure (SMILES): O=[N+]([O-])c1nccn1CC(O)C[18F] (stereo not drawn) [[18F]FLUOROMISONIDAZOLE]
- Drug uptake (HT-29 [1]): 1.17 %ID
- Drug uptake (HT-29 [2]): 9.86 %ID
- Drug uptake (HT-29 [3]): 1.03 %ID
